Tests used:
Format in all cases: cell-based
[1] = molecular target: T1, PSEN1-APH1A γ-secretase complex (Homo sapiens, UniProt P49768); experiment: Aβ40 secretion by MEF cell line expressing only PSEN1-APH1A γ-secretase (APP-C99-GFP reporter); conditions: 8 h, Beerse site unless otherwise indicated, read-out: IC50, Aβ40 peptides
T1 construct: expressed in transfected cells; host or cells: Psen1/2 double KO/Aph1ABC triple KO MEFs, pMSCV retroviral PSEN-IRES-APH1
Text: (§1) Mouse embryonic fibroblast (MEF) cells deficient for the Psen and Aph1 genes (Psen1/2^−/−, Aph1ABC^−/−) were reconstituted with human PSEN1 or PSEN2 and with human APH1A or APH1B to generate four independent cell lines, each constitutively expressing exclusively one type of γ-secretase complex (Fig. S1A) ([19]). A human APP-C99-GFP reporter was introduced to enable the measurement of Aβ peptides in the conditioned media of the cells to monitor γ-secretase activity. The assay was established in a 96-well format.
(§2) Conditional Psen1/2 double KO mice were crossed with conditional Aph1ABC triple KO mice ([29], [52], [58], [59]). At embryonic day 7.5, embryos were dissected and dissociated, and cells were plated in the presence of Dulbecco’s modified Eagle’s medium (DMEM)/F12 50% fetal calf serum (FCS) (Invitrogen). Primary MEFs were immortalized by transduction with LargeT antigen. Psen1/2 double KO/Aph1ABC triple KO MEFs were generated by transduction with a Cre-GFP–expressing adenoviral vector, and GFP-positive MEFs were sorted by fluorescence-activated cell sorting analysis. Psen1/2 Aph1ABC-deficient MEFs were maintained in DMEM/f12 10% FCS. To rescue γ-secretase expression, Psen1/2 double KO/Aph1ABC triple KO MEFs were transduced using Murine Stem Cell Virus retroviral vector system (pMSCV) viral vectors (Clontech) containing the human coding sequences of the different PSEN and APH1 homologs and the zeocin selection marker. An Internal Ribosome Entry Site sequence was cloned between the coding sequences for PSEN and APH1 to ensure co-expression of both proteins. Stable transfected cell lines were selected using 500-μg/ml zeocin (Invitrogen). Four different combinations were made: PSEN1 and APH1AL, PSEN1 and APH1B, PSEN2 and APH1AL, and PSEN2 and APH1B. These cell lines were transduced with pMSCV viral vectors (Clontech) expressing APP-C99-GFP-puromycin. After puromycin selection (5 μg/ml), GFP-positive cells were selected through FACS sorting. For the alanine mutagenesis experiment, pMSCV PSEN1-APH1A viral vectors were generated by using a long PCR-based QuikChange strategy (Stratagene). Stable cell lines without clonal selection were generated for each mutant as described above. All cell lines were regularly tested for the absence of mycoplasma and used for maximum 20 passages in culture.
(§3) The number of plated cells and incubation times were determined in respect to linearity of Aβ peptide secretion, the dynamic range of Aβ peptide quantification in the medium, and sensitivity to dimethylsulfoxide (DMSO). […] The cell viability was assessed using the CellTiter-Glo Luminescent assay (Promega) that measures ATP production. […]

[2] = molecular target: T2, PSEN2-APH1A γ-secretase complex (Homo sapiens, UniProt P49810+Q92542+Q96BI3+Q9NZ42); experiment: Aβ40 secretion by MEF cell line expressing only PSEN2-APH1A γ-secretase (APP-C99-GFP reporter); conditions: 8 h, Beerse site unless otherwise indicated, read-out: IC50, Aβ40 peptides
T2 construct: expressed in transfected cells; host or cells: Psen1/2 double KO/Aph1ABC triple KO MEFs, pMSCV retroviral PSEN-IRES-APH1
Text: as §1
as §2, with “Four different combinations were made: PSEN1 and APH1AL, PSEN1 and APH1B, PSEN2 and APH1AL, and PSEN2 and APH1B. These cell lines were transduced with pMSCV viral vectors (Clontech) expressing APP-C99-GFP-puromycin. After puromycin selection (5 μg/ml), GFP-positive cells were selected through FACS sorting. For the alanine mutagenesis experiment, pMSCV PSEN1-APH1A viral vectors were generated by using a long PCR-based QuikChange strategy (Stratagene). Stable cell lines without clonal selection were generated for each mutant as described above. All cell lines were regularly tested for the absence of mycoplasma and used for maximum 20 passages in culture.” left out
as §3

[3] = molecular target: T3, PSEN1 L172A–APH1A γ-secretase complex (Homo sapiens, UniProt P49768+Q92542+Q96BI3+Q9NZ42, L172A); experiment: Aβ40 secretion, MEF cell pool restored with PSEN1 L172A–APH1A; conditions: PSEN1 L172A (TM3)–APH1A cell pool; N = 3 to 4; mean (95% CI); decimal comma
T3 construct: expressed in transfected cells; host or cells: Psen1/2 double KO/Aph1ABC triple KO MEFs, pools without clonal selection
Method: (§4) We turned to experimental site–directed mutagenesis and selected a series of amino acids (Fig. 3) in the entrance channel for mutation to alanine. […] More importantly, they were all enzymatically active as shown by the secretion of Aβ40 in the supernatants of the cell cultures (Fig. 3B).
as §2
The number of plated cells and incubation times were determined in respect to linearity of Aβ peptide secretion, the dynamic range of Aβ peptide quantification in the medium, and sensitivity to dimethylsulfoxide (DMSO). […] MEF cells were plated in DMEM F12 supplemented with 10% FCS at 10,000 cells per well in 96-well clear bottom plates in the late afternoon and cultured for 16 h at 37 °C, 5% CO2. In the morning of the second day, the medium was replaced with 60 μl of DMEM/F12 supplemented with 2% FCS, and GSI or DMSO (controls) were added. Compounds were tested in serial dilutions with concentrations ranging from […] to 0.1 nM with 3-fold changes. The final concentration of DMSO in all wells was 0.2%. Plates were put in the incubator again at 37 °C, 5% CO2. After 8 h, the culture media were collected, and 30 μl was used to measure Aβ40 peptides. The cell viability was assessed using the CellTiter-Glo Luminescent assay (Promega) that measures ATP production. All screens were performed at one site, and reported IC50 values throughout the manuscript are from this site (Beerse) unless otherwise indicated. We however measured five compounds at the Leuven site and noticed that absolute IC50 values were different (Fig. S2). The main goal of the current work is to explore the basis for inhibitor selectivity for different γ-secretases, and selectivity was consistent in the assays at the two sites (Fig. S2).
Standard 96-well SECTOR plates (MSD) were coated with 1.5 μg/ml anti-Aβ JRFcAβ40/28 capture antibody in a final volume of 50 μl of PBS 0.05% Tween 20. After overnight incubation at 4 °C, the plates were five times rinsed with PBS 0.05% Tween 20 and blocked with 150 μl per well of casein buffer (PBS with 1% casein, pH 7.4) for 4 h at room temperature. Standards (synthetic human Aβ 1–40) were diluted in culture media. […]

[4] = molecular target: T4, PSEN1 T147A–APH1A γ-secretase complex (Homo sapiens, UniProt P49768+Q92542+Q96BI3+Q9NZ42, T147A); experiment: Aβ40 secretion, MEF cell pool restored with PSEN1 T147A–APH1A; conditions: PSEN1 T147A (TM2)–APH1A cell pool; N = 3 to 4; mean (95% CI); decimal comma
T4 construct: expressed in transfected cells; host or cells: Psen1/2 double KO/Aph1ABC triple KO MEFs, pools without clonal selection
Method: as §4
as §2, with “After puromycin selection (5 μg/ml), GFP-positive cells were selected through FACS sorting. For the alanine mutagenesis experiment, pMSCV PSEN1-APH1A viral vectors were generated by using a long PCR-based QuikChange strategy (Stratagene). Stable cell lines without clonal selection were generated for each mutant as described above. All cell lines were regularly tested for the absence of mycoplasma and used for maximum 20 passages in culture.” left out
(§5) The number of plated cells and incubation times were determined in respect to linearity of Aβ peptide secretion, the dynamic range of Aβ peptide quantification in the medium, and sensitivity to dimethylsulfoxide (DMSO). […] The cell viability was assessed using the CellTiter-Glo Luminescent assay (Promega) that measures ATP production. […] We however measured five compounds at the Leuven site and noticed that absolute IC50 values were different (Fig. S2). […]

[5] = molecular target: T5, PSEN1 T147A–APH1A γ-secretase complex (Homo sapiens, UniProt P49768, T147A); experiment: as above; conditions: decimal comma
T5 construct: expressed in transfected cells; host or cells: Psen1/2 double KO/Aph1ABC triple KO MEFs, pools without clonal selection
Method: as §4
as §2, with “After puromycin selection (5 μg/ml), GFP-positive cells were selected through FACS sorting. For the alanine mutagenesis experiment, pMSCV PSEN1-APH1A viral vectors were generated by using a long PCR-based QuikChange strategy (Stratagene). Stable cell lines without clonal selection were generated for each mutant as described above. All cell lines were regularly tested for the absence of mycoplasma and used for maximum 20 passages in culture.” left out
as §5

IC50 [1] | IC50 [2] | IC50 [3] | IC50 [4] | IC50 ([5]; PSEN1 T147A (TM2)–APH1A cell pool, N = 3 to 4, mean (95% CI)) | IC50 fold change to WT ([5]; PSEN1 T147A–APH1A cell pool) | SMILES
22 nM | 1670 nM | 0.0094 µM | 0.852 µM |  |  | O=S(=O)(c1ccc(Cl)cc1)N1[C@H]2CC[C@@H]([C@H]1c1ccc(C(F)(F)F)cc1)[C@@H](O)C2 [(+)-9b]
 |  |  |  | 0.477 µM | 2,826 fold | C[C@H](NC(=O)Cc1cc(F)cc(F)c1)C(=O)N[C@H](C(=O)OC(C)(C)C)c1ccccc1 [DAPT]

— PMC10318456, “Selective inhibitors of the PSEN1–gamma-secretase complex” (The Journal of Biological Chemistry, 2023)
